# Data: patent US20250213735A1, “NEUROPEPTIDE Y1 RECEPTOR (NPY1R) TARGETED THERAPEUTICS AND USES THEREOF” (Radionetics Oncology, Inc., priority 2023, published 2025)
# Target: hNPY1R (Homo sapiens (Human), UniProt P25929)
# Test: NPY1R binding assay (SK-N-MC membrane, [125I]-Peptide YY competition);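 also: bound radioligand separated by filtration over GF/C filter plates and counted, Ki obtained by non-linear regression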
# Conditions: crude SK-N-MC membranes endogenously expressing NPY1R; [125I]-Peptide YY (human) 0.05 nM; 120 min at room temperature; read-out: hNPY1R binding Ki
# Sequence of hNPY1R (P25929 whole entry): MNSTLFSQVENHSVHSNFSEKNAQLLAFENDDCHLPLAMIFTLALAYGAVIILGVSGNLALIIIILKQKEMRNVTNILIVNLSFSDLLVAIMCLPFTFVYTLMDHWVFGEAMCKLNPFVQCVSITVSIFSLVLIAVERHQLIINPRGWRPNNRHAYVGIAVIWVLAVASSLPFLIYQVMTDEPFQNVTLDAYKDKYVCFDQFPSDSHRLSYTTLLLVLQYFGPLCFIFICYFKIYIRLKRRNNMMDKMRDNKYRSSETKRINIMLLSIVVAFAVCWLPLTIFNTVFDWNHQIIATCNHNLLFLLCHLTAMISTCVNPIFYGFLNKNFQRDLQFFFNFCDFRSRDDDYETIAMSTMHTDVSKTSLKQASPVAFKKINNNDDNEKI
row,Compound,Ki
1,"CCC(=O)NCCNC(=O)/N=C(/N)NCCC[C@@H](NC(=O)[C@H](c1cccc(NCCCNc2c(NCCCCCCNC(=O)CN3CCN(CC(=O)O)CCN(CC(=O)O)CCN(CC(=O)O)CC3)c(=O)c2=O)c1)N1Cc2ccccc2C1)C(=O)NCc1ccc(O)cc1 [compound 2, 2,2′,2″-(10-(2-((6-((2-((3-((3-((1S,4R,Z)-9-amino-4-((4-hydroxybenzyl)carbamoyl)-1-(isoindolin-2-yl)-2,11,16-trioxo-3,8,10,12,15-pentaazaoctadec-9-en-1-yl)phenyl)amino)propyl)amino)-3,4-dioxocyclobut-1-en-1-yl)amino)hexyl)amino)-2-oxoethyl)-1,4,7,10-tetraazacyclododecane-1,4,7-triyl)triacetic acid-formic acid (1/1)]",< 10 nM
2,"CCC(=O)NCCNC(=O)/N=C(/N)NCCC[C@@H](NC(=O)[C@H](c1ccc(OCCCCNC(=O)CCCCCNC(=O)CN2CCN(CC(=O)O)CCN(CC(=O)O)CCN(CC(=O)O)CC2)cc1)N1Cc2ccccc2C1)C(=O)NCc1ccc(O)cc1 [compound 57, 2,2′,2″-(10-(2-((6-((4-(4-((1S,4R,Z)-9-amino-4-((4-hydroxybenzyl)carbamoyl)-1-(isoindolin-2-yl)-2,11,16-trioxo-3,8,10,12,15-pentaazaoctadec-9-en-1-yl)phenoxy)butyl)amino)-6-oxohexyl)amino)-2-oxoethyl)-1,4,7,10-tetraazacyclododecane-1,4,7-triyl)triacetic acid]",< 10 nM
3,"CCNC(=O)/N=C(/N)NCCC[C@@H](NC(=O)[C@@H](c1cccc(NCCCN)c1)N1Cc2ccccc2C1)C(=O)NCc1c(F)cc(O)cc1F [66B, (R)-2-((R)-2-(3-((3-aminopropyl)amino)phenyl)-2-(isoindolin-2-yl)acetamido)-N-(2,6-difluoro-4-hydroxybenzyl)-5-((Z)-2-(ethylcarbamoyl)guanidino)pentanamide]",< 10 nM
4,"CCC(=O)NCCNC(=O)/N=C(/N)NCCC[C@@H](NC(=O)[C@H](c1cccc(NCCCN)c1)N1Cc2ccccc2C1)C(=O)NCc1ccc(O)cc1 [compound 63, (R)-2-((S)-2-(3-((3-aminopropyl)amino)phenyl)-2-(isoindolin-2-yl)acetamido)-N-(4-hydroxybenzyl)-5-((Z)-2-((2-propionamidoethyl)carbamoyl)guanidino)pentanamide]",< 10 nM
5,"CCC(=O)NCCNC(=O)/N=C(/N)NCCC[C@@H](NC(=O)[C@H](c1ccc(OCCCNC(=O)CCNC(=O)CN2CCN(CC(=O)O)CCN(CC(=O)O)CCN(CC(=O)O)CC2)cc1)N1Cc2ccccc2C1)C(=O)NCc1c(F)cc(O)cc1F [compound 47, 2,2′,2″-(10-(2-((3-((3-(4-((1S,4R,Z)-9-amino-4-((2,6-difluoro-4-hydroxybenzyl)carbamoyl)-1-(isoindolin-2-yl)-2,11,16-trioxo-3,8,10,12,15-pentaazaoctadec-9-en-1-yl)phenoxy)propyl)amino)-3-oxopropyl)amino)-2-oxoethyl)-1,4,7,10-tetraazacyclododecane-1,4,7-triyl)triacetic acid]",< 10 nM
6,"CCC(=O)NCCNC(=O)/N=C(/N)NCCC[C@@H](NC(=O)[C@H](c1cccc(NC(=O)CCCNC(=O)CCCCCNC(=O)CN2CCN(CC(=O)O)CCN(CC(=O)O)CCN(CC(=O)O)CC2)c1)N1Cc2ccccc2C1)C(=O)NCc1ccc(O)cc1 [3A, 2,2′,2″-(10-(2-((6-((4-((3-((1S,4R,Z)-9-amino-4-((4-hydroxybenzyl)carbamoyl)-1-(isoindolin-2-yl)-2,11,16-trioxo-3,8,10,12,15-pentaazaoctadec-9-en-1-yl)phenyl)amino)-4-oxobutyl)amino)-6-oxohexyl)amino)-2-oxoethyl)-1,4,7,10-tetraazacyclododecane-1,4,7-triyl)triacetic acid-2,2,2-trifluoroacetic acid (1/1)]",< 10 nM
7,"N=C(N)NCCC[C@@H](NC(=O)C(c1ccccc1)N1CCC(C2CCCCC2)CC1)C(=O)NCc1ccc(O)cc1 (stereo partly drawn) [compound 83, (2R)-2-(2-(4-cyclohexylpiperidin-1-yl)-2-phenylacetamido)-5-guanidino-N-(4-hydroxybenzyl)pentanamide]",> 1000 nM
8,"CCC(=O)NCCNC(=O)/N=C(/N)NCCC[C@@H](NC(=O)[C@H](c1ccc(OCCCNc2c(NCCNC(=O)CN3CCN(CC(=O)O)CCN(CC(=O)O)CCN(CC(=O)O)CC3)c(=O)c2=O)cc1)N1Cc2ccccc2C1)C(=O)NCc1ccc(O)cc1 [compound 16, 2,2′,2″-(10-(2-((2-((2-((3-(4-((1S,4R,Z)-9-amino-4-((4-hydroxybenzyl)carbamoyl)-1-(isoindolin-2-yl)-2,11,16-trioxo-3,8,10,12,15-pentaazaoctadec-9-en-1-yl)phenoxy)propyl)amino)-3,4-dioxocyclobut-1-en-1-yl)amino)ethyl)amino)-2-oxoethyl)-1,4,7,10-tetraazacyclododecane-1,4,7-triyl)triacetic acid]",< 10 nM
9,"CCC(=O)NCCNC(=O)/N=C(/N)NCCC[C@@H](NC(=O)[C@H](c1ccc(OCCCNC(=O)CCC(=O)NCCNC(=O)CCC(C(=O)O)N2CCN(CC(=O)O)CCN(CC(=O)O)CCN(CC(=O)O)CC2)cc1)N1Cc2ccccc2C1)C(=O)NCc1c(F)cc(O)cc1F (stereo partly drawn) [compound 49, 2,2′,2″-(10-(4-((2-(4-((3-(4-((1S,4R,Z)-9-amino-4-((2,6-difluoro-4-hydroxybenzyl)carbamoyl)-1-(isoindolin-2-yl)-2,11,16-trioxo-3,8,10,12,15-pentaazaoctadec-9-en-1-yl)phenoxy)propyl)amino)-4-oxobutanamido)ethyl)amino)-1-carboxy-4-oxobutyl)-1,4,7,10-tetraazacyclododecane-1,4,7-triyl)triacetic acid]",< 10 nM
10,"CCC(=O)NCCNC(=O)/N=C(/N)NCCC[C@@H](NC(=O)[C@H](c1ccc(OCCNC(=O)CCCCCNC(=O)CN2CCN(CC(=O)O)CCN(CC(=O)O)CCN(CC(=O)O)CC2)cc1)N1Cc2ccccc2C1)C(=O)NCc1ccc(O)cc1 [compound 58, 2,2′,2″-(10-(2-((6-((2-(4-((1S,4R,Z)-9-amino-4-((4-hydroxybenzyl)carbamoyl)-1-(isoindolin-2-yl)-2,11,16-trioxo-3,8,10,12,15-pentaazaoctadec-9-en-1-yl)phenoxy)ethyl)amino)-6-oxohexyl)amino)-2-oxoethyl)-1,4,7,10-tetraazacyclododecane-1,4,7-triyl)triacetic acid]",< 10 nM
11,"CCC(=O)NCCNC(=O)/N=C(/N)NCCC[C@@H](NC(=O)[C@H](c1ccccc1)N1Cc2ccccc2C1)C(=O)NCc1ccc(O)cc1 [60A, (R)—N-(4-hydroxybenzyl)-2-((S)-2-(isoindolin-2-yl)-2-phenylacetamido)-5-((Z)-2-((2-propionamidoethyl)carbamoyl)guanidino)pentanamide]",< 10 nM
12,"CCC(=O)NCCNC(=O)/N=C(/N)NCCC[C@@H](NC(=O)[C@H](c1ccc(OCCCN(C)CCCCCNC(=O)CN2CCN(CC(=O)O)CCN(CC(=O)O)CCN(CC(=O)O)CC2)cc1)N1Cc2ccccc2C1)C(=O)NCc1c(F)cc(O)cc1F [compound 56, 2,2′,2″-(10-(2-((5-((3-(4-((1S,4R,Z)-9-amino-4-((2,6-difluoro-4-hydroxybenzyl)carbamoyl)-1-(isoindolin-2-yl)-2,11,16-trioxo-3,8,10,12,15-pentaazaoctadec-9-en-1-yl)phenoxy)propyl)(methyl)amino)pentyl)amino)-2-oxoethyl)-1,4,7,10-tetraazacyclododecane-1,4,7-triyl)triacetic acid]",< 10 nM
